Source: the NIST ThermoML archive (doi:10.1016/j.fluid.2017.11.013)
Values joined by “and” are separate entries in the source; they are usually repeats but may differ in a detail not shown here. Equal values may be shown once.

Settings: Coaxial cylinder method

C=C [ethene]
Settings | thermal conductivity
285.04 K, 6160 kPa, Fluid (supercritical or subcritical phases) | 0.06936 W/m/K
285.04 K, 6760 kPa, Fluid (supercritical or subcritical phases) | 0.07168 W/m/K
285.04 K, 7250 kPa, Fluid (supercritical or subcritical phases) | 0.07341 W/m/K
285.04 K, 8160 kPa, Fluid (supercritical or subcritical phases) | 0.07598 W/m/K
285.04 K, 9010 kPa, Fluid (supercritical or subcritical phases) | 0.07839 W/m/K
285.04 K, 9690 kPa, Fluid (supercritical or subcritical phases) | 0.0804 W/m/K
285.04 K, 9800 kPa, Fluid (supercritical or subcritical phases) | 0.08072 W/m/K
285.04 K, 9810 kPa, Fluid (supercritical or subcritical phases) | 0.08067 W/m/K
285.04 K, 9830 kPa, Fluid (supercritical or subcritical phases) | 0.0807 W/m/K
285.04 K, 9850 kPa, Fluid (supercritical or subcritical phases) | 0.08058 W/m/K
285.04 K, 9900 kPa, Fluid (supercritical or subcritical phases) | 0.08077 W/m/K
285.04 K, 9920 kPa, Fluid (supercritical or subcritical phases) | 0.08085 W/m/K
285.04 K, 9950 kPa, Fluid (supercritical or subcritical phases) | 0.08076 W/m/K and 0.08065 W/m/K
285.04 K, 10000 kPa, Fluid (supercritical or subcritical phases) | 0.08079 W/m/K
285.04 K, 10180 kPa, Fluid (supercritical or subcritical phases) | 0.08121 W/m/K
285.04 K, 10350 kPa, Fluid (supercritical or subcritical phases) | 0.08166 W/m/K
285.04 K, 10570 kPa, Fluid (supercritical or subcritical phases) | 0.08194 W/m/K
288.24 K, 4580 kPa, Fluid (supercritical or subcritical phases) | 0.03085 W/m/K
288.24 K, 5100 kPa, Fluid (supercritical or subcritical phases) | 0.03767 W/m/K
288.24 K, 5360 kPa, Fluid (supercritical or subcritical phases) | 0.04634 W/m/K
288.24 K, 5510 kPa, Fluid (supercritical or subcritical phases) | 0.05465 W/m/K
288.24 K, 5570 kPa, Fluid (supercritical or subcritical phases) | 0.06007 W/m/K
288.24 K, 5630 kPa, Fluid (supercritical or subcritical phases) | 0.06943 W/m/K
288.24 K, 5680 kPa, Fluid (supercritical or subcritical phases) | 0.07371 W/m/K
288.24 K, 5790 kPa, Fluid (supercritical or subcritical phases) | 0.0746 W/m/K
288.24 K, 5920 kPa, Fluid (supercritical or subcritical phases) | 0.06841 W/m/K
288.24 K, 6000 kPa, Fluid (supercritical or subcritical phases) | 0.06651 W/m/K
288.24 K, 6240 kPa, Fluid (supercritical or subcritical phases) | 0.06542 W/m/K
288.24 K, 6570 kPa, Fluid (supercritical or subcritical phases) | 0.06758 W/m/K
288.24 K, 7140 kPa, Fluid (supercritical or subcritical phases) | 0.06951 W/m/K
294.62 K, 5100 kPa, Fluid (supercritical or subcritical phases) | 0.03346 W/m/K
294.62 K, 5370 kPa, Fluid (supercritical or subcritical phases) | 0.03618 W/m/K
294.62 K, 6200 kPa, Fluid (supercritical or subcritical phases) | 0.05841 W/m/K
294.62 K, 6290 kPa, Fluid (supercritical or subcritical phases) | 0.06125 W/m/K
294.62 K, 6530 kPa, Fluid (supercritical or subcritical phases) | 0.06505 W/m/K
294.62 K, 6690 kPa, Fluid (supercritical or subcritical phases) | 0.066 W/m/K
294.62 K, 6770 kPa, Fluid (supercritical or subcritical phases) | 0.06592 W/m/K
294.62 K, 6870 kPa, Fluid (supercritical or subcritical phases) | 0.06592 W/m/K
294.62 K, 6950 kPa, Fluid (supercritical or subcritical phases) | 0.06591 W/m/K
294.62 K, 7030 kPa, Fluid (supercritical or subcritical phases) | 0.0659 W/m/K
294.62 K, 7130 kPa, Fluid (supercritical or subcritical phases) | 0.06589 W/m/K
294.62 K, 7360 kPa, Fluid (supercritical or subcritical phases) | 0.06665 W/m/K
294.62 K, 7490 kPa, Fluid (supercritical or subcritical phases) | 0.06627 W/m/K
294.62 K, 7670 kPa, Fluid (supercritical or subcritical phases) | 0.06623 W/m/K
294.62 K, 7690 kPa, Fluid (supercritical or subcritical phases) | 0.06625 W/m/K
294.62 K, 8210 kPa, Fluid (supercritical or subcritical phases) | 0.06804 W/m/K
294.62 K, 8570 kPa, Fluid (supercritical or subcritical phases) | 0.06916 W/m/K
294.62 K, 9220 kPa, Fluid (supercritical or subcritical phases) | 0.07111 W/m/K
294.62 K, 9740 kPa, Fluid (supercritical or subcritical phases) | 0.07276 W/m/K
294.62 K, 10280 kPa, Fluid (supercritical or subcritical phases) | 0.07482 W/m/K
294.62 K, 10840 kPa, Fluid (supercritical or subcritical phases) | 0.07574 W/m/K
301.6 K, 1010 kPa, Fluid (supercritical or subcritical phases) | 0.02196 W/m/K
301.6 K, 1900 kPa, Fluid (supercritical or subcritical phases) | 0.02294 W/m/K
301.6 K, 2940 kPa, Fluid (supercritical or subcritical phases) | 0.02469 W/m/K
301.6 K, 3920 kPa, Fluid (supercritical or subcritical phases) | 0.02736 W/m/K
301.6 K, 5010 kPa, Fluid (supercritical or subcritical phases) | 0.03136 W/m/K
301.6 K, 5560 kPa, Fluid (supercritical or subcritical phases) | 0.0359 W/m/K
301.6 K, 5610 kPa, Fluid (supercritical or subcritical phases) | 0.03586 W/m/K
301.6 K, 6120 kPa, Fluid (supercritical or subcritical phases) | 0.0417 W/m/K and 0.04209 W/m/K
301.6 K, 6550 kPa, Fluid (supercritical or subcritical phases) | 0.0488 W/m/K
301.6 K, 6780 kPa, Fluid (supercritical or subcritical phases) | 0.05244 W/m/K
301.6 K, 6930 kPa, Fluid (supercritical or subcritical phases) | 0.05667 W/m/K
301.6 K, 7100 kPa, Fluid (supercritical or subcritical phases) | 0.05988 W/m/K
301.6 K, 7230 kPa, Fluid (supercritical or subcritical phases) | 0.06174 W/m/K
301.6 K, 7400 kPa, Fluid (supercritical or subcritical phases) | 0.06342 W/m/K
301.6 K, 7430 kPa, Fluid (supercritical or subcritical phases) | 0.06371 W/m/K
301.6 K, 7440 kPa, Fluid (supercritical or subcritical phases) | 0.06376 W/m/K
301.6 K, 7460 kPa, Fluid (supercritical or subcritical phases) | 0.06392 W/m/K
301.6 K, 7480 kPa, Fluid (supercritical or subcritical phases) | 0.06395 W/m/K
301.6 K, 7570 kPa, Fluid (supercritical or subcritical phases) | 0.06425 W/m/K
301.6 K, 7680 kPa, Fluid (supercritical or subcritical phases) | 0.06462 W/m/K
301.6 K, 7720 kPa, Fluid (supercritical or subcritical phases) | 0.06482 W/m/K
301.6 K, 7760 kPa, Fluid (supercritical or subcritical phases) | 0.06461 W/m/K
301.6 K, 7800 kPa, Fluid (supercritical or subcritical phases) | 0.06479 W/m/K
301.6 K, 7820 kPa, Fluid (supercritical or subcritical phases) | 0.06483 W/m/K
301.6 K, 7980 kPa, Fluid (supercritical or subcritical phases) | 0.06482 W/m/K
301.6 K, 8360 kPa, Fluid (supercritical or subcritical phases) | 0.0649 W/m/K
301.6 K, 9100 kPa, Fluid (supercritical or subcritical phases) | 0.0668 W/m/K
301.6 K, 10390 kPa, Fluid (supercritical or subcritical phases) | 0.0716 W/m/K
301.6 K, 12800 kPa, Fluid (supercritical or subcritical phases) | 0.07701 W/m/K
301.6 K, 14950 kPa, Fluid (supercritical or subcritical phases) | 0.08151 W/m/K
301.6 K, 18120 kPa, Fluid (supercritical or subcritical phases) | 0.08743 W/m/K
301.6 K, 20700 kPa, Fluid (supercritical or subcritical phases) | 0.09068 W/m/K
301.6 K, 20800 kPa, Fluid (supercritical or subcritical phases) | 0.09075 W/m/K
301.6 K, 25600 kPa, Fluid (supercritical or subcritical phases) | 0.09706 W/m/K
301.6 K, 31800 kPa, Fluid (supercritical or subcritical phases) | 0.1039 W/m/K
301.6 K, 40300 kPa, Fluid (supercritical or subcritical phases) | 0.1138 W/m/K
301.6 K, 45200 kPa, Fluid (supercritical or subcritical phases) | 0.1185 W/m/K
301.6 K, 50400 kPa, Fluid (supercritical or subcritical phases) | 0.1236 W/m/K
301.6 K, 55500 kPa, Fluid (supercritical or subcritical phases) | 0.1283 W/m/K
301.6 K, 59300 kPa, Fluid (supercritical or subcritical phases) | 0.132 W/m/K
301.6 K, 61000 kPa, Fluid (supercritical or subcritical phases) | 0.1337 W/m/K and 0.1336 W/m/K
301.6 K, 62000 kPa, Fluid (supercritical or subcritical phases) | 0.1342 W/m/K
301.6 K, 65000 kPa, Fluid (supercritical or subcritical phases) | 0.1366 W/m/K
301.6 K, 65300 kPa, Fluid (supercritical or subcritical phases) | 0.1372 W/m/K
301.6 K, 65700 kPa, Fluid (supercritical or subcritical phases) | 0.1378 W/m/K
301.6 K, 66000 kPa, Fluid (supercritical or subcritical phases) | 0.1378 W/m/K
301.6 K, 70000 kPa, Fluid (supercritical or subcritical phases) | 0.1414 W/m/K
302.21 K, 101 kPa, Gas | 0.02112 W/m/K
303.1 K, 101 kPa, Gas | 0.0207 W/m/K
425 K, 101 kPa, Gas | 0.0381 W/m/K
425.46 K, 500 kPa, Fluid (supercritical or subcritical phases) | 0.03821 W/m/K
425.46 K, 1000 kPa, Fluid (supercritical or subcritical phases) | 0.03832 W/m/K
425.46 K, 2500 kPa, Fluid (supercritical or subcritical phases) | 0.03937 W/m/K
425.46 K, 5000 kPa, Fluid (supercritical or subcritical phases) | 0.04226 W/m/K
425.46 K, 7300 kPa, Fluid (supercritical or subcritical phases) | 0.04435 W/m/K
425.46 K, 10000 kPa, Fluid (supercritical or subcritical phases) | 0.04845 W/m/K
425.46 K, 12200 kPa, Fluid (supercritical or subcritical phases) | 0.0528 W/m/K
425.46 K, 14600 kPa, Fluid (supercritical or subcritical phases) | 0.05769 W/m/K and 0.05771 W/m/K
425.46 K, 14800 kPa, Fluid (supercritical or subcritical phases) | 0.05814 W/m/K
425.46 K, 20000 kPa, Fluid (supercritical or subcritical phases) | 0.06783 W/m/K
425.46 K, 24900 kPa, Fluid (supercritical or subcritical phases) | 0.07364 W/m/K
425.46 K, 30000 kPa, Fluid (supercritical or subcritical phases) | 0.07726 W/m/K
425.46 K, 40600 kPa, Fluid (supercritical or subcritical phases) | 0.08392 W/m/K
425.46 K, 50500 kPa, Fluid (supercritical or subcritical phases) | 0.0908 W/m/K
425.46 K, 60700 kPa, Fluid (supercritical or subcritical phases) | 0.09875 W/m/K
425.46 K, 70300 kPa, Fluid (supercritical or subcritical phases) | 0.1051 W/m/K
425.46 K, 71800 kPa, Fluid (supercritical or subcritical phases) | 0.1068 W/m/K
425.46 K, 73700 kPa, Fluid (supercritical or subcritical phases) | 0.109 W/m/K
425.46 K, 75000 kPa, Fluid (supercritical or subcritical phases) | 0.1098 W/m/K
425.46 K, 79000 kPa, Fluid (supercritical or subcritical phases) | 0.1119 W/m/K
425.46 K, 81900 kPa, Fluid (supercritical or subcritical phases) | 0.1144 W/m/K
425.46 K, 89500 kPa, Fluid (supercritical or subcritical phases) | 0.1184 W/m/K
425.46 K, 93500 kPa, Fluid (supercritical or subcritical phases) | 0.1214 W/m/K
425.46 K, 97000 kPa, Fluid (supercritical or subcritical phases) | 0.1232 W/m/K
425.46 K, 100000 kPa, Fluid (supercritical or subcritical phases) | 0.1251 W/m/K
425.62 K, 101 kPa, Gas | 0.03809 W/m/K
